Measured values published in US20230021483A1, “[…] […] METHOD AND CLASSIFICATION OF PHARMACEUTICAL COMPONENTS BY USING TRANSCRIPTOMES” (National Institutes of Biomedical Innovation, Health and …, priority 2016, published 2023).

System: preferentially upregulated genes in LV, SP, LN
Test: Z-score-based differential gene expression analysis (adjuvant group- or adjuvant-associated genes, 40 module mapping, TargetMine annotation)
Type: in vivo, C57BL/6 mice
Conditions: ID, LV
Description: Each sample's FC value was converted into a z-score on a gene basis by using the entire data set for each organ. The Z-score of the triplicates of interest were summed for each adjuvant. For example, the three sample z-score in the LV sample following cdiGMP administration was summed on a gene-by-gene basis, after which the summed scores of >3 genes were selected as relatively preferentially expressed genes in the LV after cdiGMP administration. The following threshold was applied for selections. […] G2^LV: ALM_IP(z>1) & bCD(z>1) & ENDCN(z>1) & FCA(z>1). […] G4^LV: MALP2s(z>3). […] G2^SP: ENDCN_x2+ENDCN_x3(z>2) & ALM_IP(z>3) & bCD(z>3). […] G4^SP: ADX_ID_x2+ADX_ID_x3(z>2) & ADX_IP(z>3) & MALP2s(z>3). […] G2^LN: bCD(z>3) & FCA(z>3). […] G5^LN: K3(z>1.5) & K3SPG_x1+K3SPG_x2(z>1) & D35_x1+D35_x3(z>1). G6^LN: AddaVax(z>3).

Monophosphoryl lipid A [MPLA]
Adar 1425405_a_at (Group G1, Modules 20) (sample x1): −0.2
Adar 1434268_at (Group G1, Modules 20) (sample x1): −0
Ddx58 1436562_at (Group G1, Modules 20) (sample x1): −0.3
Ddx58 1456890_at (Group G1, Modules 20) (sample x1): −0.2
Eif2ak2 1422005_at (Group G1, Modules 20) (sample x1): −0.3
G3bp2 1421323_a_at (Group G1, Modules 20) (sample x1): −0.3
Gm9706///Isg15 1431591_s_at (Group G1, Modules 20) (sample x1): −0.5
H2-T10///H2-T22///H2-T9 1449875_s_at (Group G1, Modules 20) (sample x1): −0.3
Ifih1 1426276_at (Group G1, Modules 20) (sample x1): −0.4
Ifit1 1450783_at (Group G1, Modules 20) (sample x1): −0.5
Ifit3 1449025_at (Group G1, Modules 20) (sample x1): −0.5
Irf7 1417244_a_at (Group G1, Modules 20) (sample x1): −0.4
Irgm1 1418825_at (Group G1, Modules 20) (sample x1): −0.4
Mndal 1426906_at (Group G1, Modules 20) (sample x1): −0.2
Pml 1448757_at (Group G1, Modules 20) (sample x1): −0.4
Pml 1456103_at (Group G1, Modules 20) (sample x1): −0.3
Rnf213 1455500_at (Group G1, Modules 20) (sample x1): −0.4
Rsad2 1436058_at (Group G1, Modules 20) (sample x1): −0.5
Shisa5 1423986_a_at (Group G1, Modules 20) (sample x1): −0.2
Shisa5 1437503_a_at (Group G1, Modules 20) (sample x1): −0.3
Stat1 1450033_a_at (Group G1, Modules 20) (sample x1): −0.5
Stat1 1450034_at (Group G1, Modules 20) (sample x1): −0.4
Tdrd7 1426716_at (Group G1, Modules 20) (sample x1): −0.3
Tor1aip2 1418115_s_at (Group G1, Modules 20) (sample x1): −0.4
Tor1aip2 1418116_at (Group G1, Modules 20) (sample x1): −0
Tor1aip2 1435526_at (Group G1, Modules 20) (sample x1): −0.2
Trim12a 1437432_a_at (Group G1, Modules 20) (sample x1): −0.4
Uba7 1426970_a_at (Group G1, Modules 20) (sample x1): −0.1
Adar 1425405_a_at (Group G1, Modules 20) (sample x2): −0.4
Adar 1434268_at (Group G1, Modules 20) (sample x2): −0.3
Ddx58 1436562_at (Group G1, Modules 20) (sample x2): −0.4
Ddx58 1456890_at (Group G1, Modules 20) (sample x2): −0.1
Eif2ak2 1422005_at (Group G1, Modules 20) (sample x2): −0.4
G3bp2 1421323_a_at (Group G1, Modules 20) (sample x2): −0.6
Gm9706///Isg15 1431591_s_at (Group G1, Modules 20) (sample x2): −0.5
H2-T10///H2-T22///H2-T9 1449875_s_at (Group G1, Modules 20) (sample x2): −0.3
Ifih1 1426276_at (Group G1, Modules 20) (sample x2): −0.4
Ifit1 1450783_at (Group G1, Modules 20) (sample x2): −0.5
Ifit3 1449025_at (Group G1, Modules 20) (sample x2): −0.5
Irf7 1417244_a_at (Group G1, Modules 20) (sample x2): −0.5
Irgm1 1418825_at (Group G1, Modules 20) (sample x2): −0.5
Mndal 1426906_at (Group G1, Modules 20) (sample x2): −0.4
Pml 1448757_at (Group G1, Modules 20) (sample x2): −0.3
Pml 1456103_at (Group G1, Modules 20) (sample x2): −0.4
Rnf213 1455500_at (Group G1, Modules 20) (sample x2): −0.5
Rsad2 1436058_at (Group G1, Modules 20) (sample x2): −0.5
Shisa5 1423986_a_at (Group G1, Modules 20) (sample x2): −0.4
Shisa5 1437503_a_at (Group G1, Modules 20) (sample x2): −0.3
Stat1 1450033_a_at (Group G1, Modules 20) (sample x2): −0.5
Stat1 1450034_at (Group G1, Modules 20) (sample x2): −0.5
Tdrd7 1426716_at (Group G1, Modules 20) (sample x2): −0.3
Tor1aip2 1418115_s_at (Group G1, Modules 20) (sample x2): −0.4
Tor1aip2 1418116_at (Group G1, Modules 20) (sample x2): −0.3
Tor1aip2 1435526_at (Group G1, Modules 20) (sample x2): −0.1
Trim12a 1437432_a_at (Group G1, Modules 20) (sample x2): −0.6
Uba7 1426970_a_at (Group G1, Modules 20) (sample x2): −0.2
Adar 1425405_a_at (Group G1, Modules 20) (sample x3): −0.6
Adar 1434268_at (Group G1, Modules 20) (sample x3): −0.3
Ddx58 1436562_at (Group G1, Modules 20) (sample x3): −0.5
Ddx58 1456890_at (Group G1, Modules 20) (sample x3): −0.4
Eif2ak2 1422005_at (Group G1, Modules 20) (sample x3): −0.4
G3bp2 1421323_a_at (Group G1, Modules 20) (sample x3): −0.5
Gm9706///Isg15 1431591_s_at (Group G1, Modules 20) (sample x3): −0.5
H2-T10///H2-T22///H2-T9 1449875_s_at (Group G1, Modules 20) (sample x3): −0.4
Ifih1 1426276_at (Group G1, Modules 20) (sample x3): −0.4
Ifit1 1450783_at (Group G1, Modules 20) (sample x3): −0.5
Ifit3 1449025_at (Group G1, Modules 20) (sample x3): −0.5
Irf7 1417244_a_at (Group G1, Modules 20) (sample x3): −0.5
Irgm1 1418825_at (Group G1, Modules 20) (sample x3): −0.6
Mndal 1426906_at (Group G1, Modules 20) (sample x3): −0.5
Pml 1448757_at (Group G1, Modules 20) (sample x3): −0.4
Pml 1456103_at (Group G1, Modules 20) (sample x3): −0.3
Rnf213 1455500_at (Group G1, Modules 20) (sample x3): −0.5
Rsad2 1436058_at (Group G1, Modules 20) (sample x3): −0.5
Shisa5 1423986_a_at (Group G1, Modules 20) (sample x3): −0.3
Shisa5 1437503_a_at (Group G1, Modules 20) (sample x3): −0.4
Stat1 1450033_a_at (Group G1, Modules 20) (sample x3): −0.6
Stat1 1450034_at (Group G1, Modules 20) (sample x3): −0.5
Tdrd7 1426716_at (Group G1, Modules 20) (sample x3): −0.4
Tor1aip2 1418115_s_at (Group G1, Modules 20) (sample x3): −0.6
Tor1aip2 1418116_at (Group G1, Modules 20) (sample x3): −0.2
Tor1aip2 1435526_at (Group G1, Modules 20) (sample x3): −0.5
Trim12a 1437432_a_at (Group G1, Modules 20) (sample x3): −0.5
Uba7 1426970_a_at (Group G1, Modules 20) (sample x3): −0.6
